Values joined by “and” are separate entries in the source; they are usually repeats but may differ in a detail not shown here. Equal values may be shown once.
Legend:
Assay type in all cases: in vivo, Cydia pomonella
[1] = tested on: codling moth; assay: Inherent attractancy field test of HPV blends in baited sticky traps in walnut orchard; settings: walnut orchard; blends 10 mg/white septa; ethyl (2E,4Z)-2,4-decadienoate 5 mg
Protocol: The blends listed in Table 2 were then field tested in walnut orchards for their attractancy to male and female codling moths, and also for enhancement with synthetic codling moth pheromone and other additives identified above. Their total capture (both males and females), and their individual male and female capture were determined and results obtained, were compared to insect capture obtained with purified individual ester, compound #25 namely ethyl (2E,4Z)-2,4-decadienoate, and to the codling moth male sex pheromone compound #26 in Table 3.
Individual blends containing representative aldehyde, alcohol, ester, monoterpene or sesquiterpene blends were provided in the traps in 10 mg/white septa.
Individual host-plant volatile (HPV) blends identified by the #1-23 in Table 3 were tested for codling moth attractancy in a walnut orchard, and the results were compared to the isolated purified ethyl (2E,4Z)-2,4-decadienoate (#25), to pheromone (#26) and to solvent controls (#24).
Twenty-five HPV blends and eight individual compounds were field tested. One synthetic blend, “ester blend #10,” elicited excellent codling moth attraction. In field tests, the other tested blends (see Table 3) and compounds captured no moths over a three month period, except for an “apple-skin surface extract” (Golden Delicious, ether solvent) (Σ=3 codling moth captured, 1♂: 2♀♀) and the individual compound, (E,E)-α-farnesene (Σ=1♂ codling moth captured). The field tests are presented in Table 3 and show attraction specificity for HPV ester blend #10.
(§1) Sticky traps (ICP and IIB traps, Trécé, Inc. Salinas, Calif.) were baited with either extracts, blends of HPVs, or individual HPVs (>95% purity) that evaporated from impregnated rubber septa. HPV blends, or individual HPV compounds, were diluted in hexane and pipetted onto rubber septa at approximate doses of 10 mg/septum. A single treatment septum was placed in each sticky wing-trap, and hung approximately six meters high in the outer walnut canopy. Trap liners and treatment HPV septa were replaced every 10-14 days and pheromone septa every month and tests were conducted throughout two summers.
(§2) A replicated series of different HPV treatment traps, control “blank” (unbaited) trap, and a commercial pheromone-baited trap (Trécé, Inc.) were distributed 5 trees apart throughout two distant Hartley walnut orchards and validated in 12 walnut orchards. The orchards were distinct, with one using three summer insecticide sprays and the other had no spraying. Thus, these test orchards had low vs. moderate relative populations of codling moths. Significant effects on the gender of codling moths captured were judged by paired tests, either T-test or a nonparametric test.

[2] = tested on: codling moth; assay: Trap capture with purified (2E,4E) and (2E,4Z) 2,4-decadienoic acid esters; settings: 1 mg dose/gray septum; four orchards; means of 21 trap checks
Protocol: In this study, test compounds were highly purified synthetic samples. The purities of the compounds are expressed as percentages. Individual traps were baited with 1 mg dose/gray septum; five replicate blocks in four orchards; means of 21 total trap checks.

[3] = tested on: male codling moth; assay: Pheromone preference paired-trap test: pheromone alone vs pheromone + HPV; settings: Table 8, trap paired with the HPV of the same table line
Source text: Interaction of synthetic apple and pear odor blends, described above in Table 2, and their effect on the attractancy of synthetic pheromone to codling moth was also studied. For that purpose, series of paired-traps containing pheromone alone or pheromone in combination with synthetic host plant volatile blends were placed in walnut orchards.
Interaction of individual synthetic host plant volatiles or blends on the attractiveness of synthetic male pheromone to male codling moth administered in paired traps with pheromone alone or with pheromone and attractant 10 mg/red septum was also studied.
(§3) Pheromone traps (sticky wing traps, Trécé, Inc.,) were hung as pairs: a pheromone only baited-trap vs. a pheromone+HPV blend-baited trap. The two traps of a test pair were attached in close competitive proximity (120 cm apart) on a common hanger bar (PVC pipe). The paired-trap bars were hung 5-6 meters high on the outer canopies of trees. A single pair-trap was hung per tree and different replicate test trees were separated by five rows in a matrix through the orchard. Each pheromone trap was baited with ½ of a commercial pheromone-impregnated rubber septum (Trécé, Inc.). Septa were sectioned by a razor blade. The HPV blends evaporated from their own separate impregnated rubber septa containing 10 mg diluted in hexane/septum).
(§4) Tests were conducted in a Harley English walnut orchard. Tests spanned the entire two year seasons April-October with traps checked, males sexed, counted and removed every 2-7 days. Significant effect on pheromone trap capture were judged by paired tests either T-test or a nonparametric test.

[4] = tested on: codling moth; assay: Paired-trap test of pheromone alone vs pheromone + ester blend #10; settings: for Total Moths Caught: / Mean ± SEM capture of codling moths: Table 11; for Mean ± SEM capture of codling moths: paired traps, Hartley walnut orchard
Source text: The ability of the HPV ester blend #10 to influence the pheromone attractancy/preference of codling moth was resolved using paired-traps, one trap with a pheromone septum alone and the other trap with a pheromone septum and an ester blend #10 septum. […] Results are seen in Tables 10 and 11, and FIG. 3.
Table 10 illustrates interaction of pheromone with HPV ester blend #10 on codling moth attraction, when tested in a conventional low-population Hartley walnut orchard. There were 13 traps and 18 trap check dates.
as §3, §4

[5] = tested on: codling moth; assay: Septa colour and loading dose trap study; settings: Ph-L2 pheromone
Protocol: Since there have been differences observed between traps containing gray, white or red septa, a study was performed to determine the significance of the specific septa and their effect on the increase or decrease of attractancy. […]

[6] = tested on: codling moth; assay: Ester blend #10-baited vs pheromone-baited sticky traps; settings: Table 13; baited sticky trap
Source text: Attraction of female and male codling moths to ester blend #10 in baited sticky trap is seen in FIG. 1. […] Results are numerically expressed in Table 13.
Table 13 compares two orchard treatments with ester blend #10 and pheromone-only baited sticky traps. […] In the pheromone baited traps, only male insects were captured.
The female flight pattern depicted by capture in ester blend #10-baited sticky traps was related to the male flight pattern to pheromone-baited traps over the 3 month test period. Results are seen in FIG. 2, which is a comparative graph of codling moth flight patterns delineated by males captured in pheromone traps versus both sexes captured in ester blend #10 traps. […] The male pheromone curve rises sooner and lasts longer per flight, while the female ester blend #10 curve drops off sooner. These temporal-phase shifts of the flight curves represent the earlier and longer emergence of male codling moth for each flight period.
as §1, §2

[7] = tested on: codling moth; assay: Rapid-kill liquid traps baited with ester blend #10 or pheromone
Protocol: Experimental challenge to this question was to use a novel, funnel-liquid-jar-trap (“rapid-kill liquid traps”) to rapidly kill (drown) attracted moths. […] Again, it was the females who were predominantly captured (sex ratio: 1♂:3.0♀♀ insect attracted).
Again, females were preferentially attracted (3:1 ratio) to ester blend #10 rapid kill liquid traps, while only males were seen to be attracted to the pheromone traps.
A second series of inherent attractancy tests were conducted on the most-active HPV blend (ester blend #10) using a novel, funnel-liquid (50:50 water and antifreeze) jar-trap adapted from a prototype of Trece, Inc., to rapidly kill (drown) attracted moths (“rapid-kill liquid traps”). This study comprised of a pheromone standard trap, a control blank trap and seven replicated HPV ester blend #10-baited traps. The rapid-kill traps were hung six meters high on trees distributed five rows apart in a Hartley walnut orchard with a moderate codling moth population. HPV ester blend #10 was loaded on a rubber septa at approximate doses of 10 mg/septum and were replaced every 10 days, while the commercial pheromone septum was replaced monthly.

[8] = tested on: codling moth; assay: Sticky traps baited with the single compound or pheromone; settings: Table 15, sticky trap
Source text: FIG. 5 illustrates mean attraction of female and male codling moths to sticky traps baited with a single host plant volatile, ethyl (2E,4Z)-2,4-decadienoate. The attraction was followed over a two month period.

[9] = Gray Septa, High (high population conventional orchard)
[10] = Gray Septa, Low (low population organic orchard)
[11] = Red Septa, High (high population conventional orchard)
[12] = Red Septa, Low (low population organic orchard)
[13] = 3 traps, 43 trap checks (pheromone: 1 trap, 19 trap checks)

SMILES: C/C=C/C=C/CCCCCCCO [Pheromone, (E,E)-8,10-dodecadienol, reference compound]
- FEMALE CM Captured with HPV; ♀♀/trap night ± SEM [1]: 0.0 ♀♀/trap night
- MALE CM Captured with HPV; ♂♂/trap/night ± SEM [1]: 3.15 ± 0.98 ♂♂/trap/night
- Total CM Captured with HPV: (CM/trap/night ± SEM) [1]: 3.15 ± 0.98 CM/trap/night
- MALE CM Captured: ♂♂/trap/night ± SEM [2]: 7.13 ± 1.94 ♂♂/trap/night
- Total CM Captured: CM/trap/night ± SEM [2]: 7.13 ± 1.94 CM/trap/night
- Male CM Captured, Pheromone Alone Trap: ± SEM ([3]; Orchard #1): 0.73 ± 0.15 ♂♂/trap/night and 1.09 ± 0.27 ♂♂/trap/night and 1.04 ± 0.21 ♂♂/trap/night and 0.79 ± 0.15 ♂♂/trap/night and 1.24 ± 0.52 ♂♂/trap/night and 0.72 ± 0.13 ♂♂/trap/night
- Male CM Captured, Pheromone Alone Trap: ± SEM ([3]; Orchard #3): 2.41 ± 0.42 ♂♂/trap/night and 2.98 ± 0.49 ♂♂/trap/night and 2.33 ± 0.41 ♂♂/trap/night and 4.40 ± 0.87 ♂♂/trap/night and 2.60 ± 0.38 ♂♂/trap/night and 3.82 ± 0.42 ♂♂/trap/night
- Total Moths Caught: Male ([4]; Table 10, conventional low-population Hartley walnut orchard): 46
- Male capture, Mean ± SEM ([4]; Table 10, conventional low-population Hartley walnut orchard, 13 traps, 18 trap check dates): 0.55 Moths/Night
- Total Moths Caught: ([4]; Test 1): 212
- Mean ± SEM capture of codling moths ([4]; Test 1 (2 Reps)): 0.74 ± 0.13 Moths/Trap/Night
- Total Moths Caught: ([4]; Test 2): 745
- Mean ± SEM capture of codling moths ([4]; Test 2 (2 Reps, 50 trap checks)): 2.54 ± 0.43 Moths/Trap/Night
- ♂♂ ± SEM (Ph-L2 pheromone) [5, 9]: 0.08 ± 0.05
- ♂♂ ± SEM (under Ph-L2 pheromone) [5, 9]: 0.05 ± 0.05
- ♂♂ ± SEM (Ph-L2 pheromone) [5, 10]: 0
- ♂♂ ± SEM (under Ph-L2 pheromone) [5, 10]: 1.28 ± 0.61
- ♂♂ ± SEM (Ph-L2 pheromone) [5, 11]: 0.06 ± 0.06
- ♂♂ ± SEM (under Ph-L2 pheromone) [5, 11]: 9.98 ± 2.94
- ♂♂ ± SEM (Ph-L2 pheromone) [5, 12]: 0
- ♂♂ ± SEM (under Ph-L2 pheromone) [5, 12]: 0.80 ± 0.31
- Female Capture: Mean ± SEM [6]: 0 Moths/Trap/Night
- Female Capture: Sum: [6]: 0 Moths/Trap/Night
- Male Capture: Mean ± SEM [6]: 4.96 ± 1.04 Moths/Trap/Night
- Male Capture: Sum: [6]: 94.3 Moths/Trap/Night
- Female Capture: Sum: ([7]; Table 14): 0 Moths/Trap/Night
- Male Capture: Sum: ([7]; Table 14): 18.3 Moths/Trap/Night
- Female Capture: Mean ± SEM ([7]; Table 14, one month): 0 Moths/Trap/Night
- Male Capture: Mean ± SEM ([7]; Table 14, one month): 3.04 ± 0.08 Moths/Trap/Night
- Female Capture: Sum: [8]: 0 Moths/Trap/Night
- Male Capture: Sum: [8]: 94.3 Moths/Trap/Night
- Female Capture: Mean ± SEM [8, 13]: 0 Moths/Trap/Night
- Male Capture: Mean ± SEM [8, 13]: 4.96 ± 1.04 Moths/Trap/Night

Reference: patent publication US6528049B2, “Bisexual attractants, aggregants and arrestants for adults and larvae of codling moth and other species of lepidoptera” (Trece, Inc., priority 1999, dated 2003)
